# Assay results: article PMC4379580 (Viruses, 2015)
# Assays:
# WT-His-P9-1 [1] = molecular target: T1, WT-His-P9-1 (Southern rice black-streaked dwarf virus, UniProt B2LHU4); assay: intrinsic fluorescence quenching titration; type: binding; conditions: 298 K, pH 7.4, 20 μM protein, excitation 275 nm, Hill equation
# T1 construct: protein encoded by first ORF of segment S9 (P9)
# TR-ΔC23-His-P9-1 = TR-ΔC23-His-P9-1 (Southern rice black-streaked dwarf virus, UniProt B2LHU4); conditions: 298 K, 20 μM protein, excitation 275 nm, Hill equation
# TR-ΔN6-His-P9-1 = TR-ΔN6-His-P9-1 (Southern rice black-streaked dwarf virus, UniProt B2LHU4); conditions: 298 K, 20 μM protein, excitation 275 nm, Hill equation
# WT-His-P9-1 [2] = molecular target: WT-His-P9-1 (Southern rice black-streaked dwarf virus, UniProt B2LHU4, S138T); assay: biochemical
structure (smiles),measurement,setting,value
"CCOP(=O)(OCC)C(Nc1nc2c(C)cccc2s1)c1ccccc1F (stereo not shown) [DFL, dufulin]",Binding parameters / KA (M^-1),WT-His-P9-1 [1],1 × 10^5.061
same,Binding parameters / KA (M^-1),TR-ΔC23-His-P9-1,1 × 10^4.470
same,Binding parameters / KA (M^-1),TR-ΔN6-His-P9-1,1 × 10^6.421
same,Kd,WT-His-P9-1 [2],9.73 µM
